Test results taken from patent US8779002B2, “Methods for treating a variety of diseases and conditions, and compounds useful therefor” (Salk Institute for Biological Studies, priority 2007, dated 2014).
Read-outs that look alike come from different tables or passages of the source.

Experiments:
CaM Kinase II alpha = assay: CaM Kinase II activation; format: cell-based; set-up: key: + = positive result or enzyme activation
Experimental: Invention compounds have the ability to activate CaM Kinase II alpha, a key enzyme involved in memory formation.
To evaluate the ability of a test compound to activate CaM Kinase II alpha, HT22 hippocampal neurons or one week old cortical neurons from embryonic 18 day rats can be prepared according to published procedures (e.g., Soucek et al., Neuron 39:43-56 (2003) and Li et al., Neuron 19:453-463 (1997)). Thus, for example, suitable cells can be treated with 1-2 μM of an exemplary invention compound for a suitable amount of time (e.g., 15, 30, 60 or 120 minutes).
Cells are then lysed and applied to a suitable gel for separation (e.g., P81 phosphocellulose paper, polyacrylamide gel containing SDS, and the like). CaMKII activity can then be assayed using an antibody that recognizes phosphothreonine from both the alpha and beta chains of CaM Kinase II. Invention compounds promote an increase in CaMKII activity of 10% or greater.

Retinal Ganglion Cells = assay: In vitro ischemia, retinal ganglion cells; format: cell-based; set-up: key: + = positive result or enzyme activation
MC-65 cells = assay: MC65 intracellular amyloid toxicity assay; format: cell-based; details: for EC50: MC65; for Protection against intracellular protein aggregation and toxicity: MC-65 cells, tetracycline removal, MTT 5 days later
Experimental: FIG. 4A illustrates the viability of MC-65 cells upon exposure to the indicated concentrations of compounds, and the degree to which synthesis of the C-terminal fragment of APP is induced by the removal of tetracycline. Cell death was determined 5 days later by the MTT assay and confirmed visually. The data are plotted as percent viable, relative to controls of drug plus un-induced cells.

Amyloid = assay: Extracellular amyloid toxicity (cell culture); format: cell-based
HT22 cells [1] = assay: Chemical ischemia (iodoacetic acid) in HT22 mouse hippocampal cells; format: cell-based; set-up: key to In Vitro Ischemia, Mouse hippocampal cells: + = positive result or enzyme activation; details: for Cell death caused by treatment of HT22 cells with 20 μM IAA: 20 μM iodoacetic acid for 2 hr, MTT after 24 hr
Experimental: FIG. 2 illustrates the ability of invention compounds CNB-001 and J147 to protect nerve cells from chemical ischemia. HT22 cells were treated with 20 μM iodoacetic acid for 2 hr alone or in the presence of varying concentrations of CNB-001 or J147. % survival was confirmed by microscopy and measured after 24 hr by the MTT assay.
Most cell culture models of ischemia utilize primary cortical cultures that are exposed to some form of oxygen and glucose deprivation. While these assays may come closer to mimicking the in vivo conditions than assays employing neuronal cell lines, they have a number of problems that make them difficult to use for the routine screening of potential neuroprotective compounds. The most serious problem is that the condition needed to kill a fixed percentage of cells are highly variable from experiment to experiment, making it very difficult to get accurate values for neuroprotective activity. In order to circumvent this and other problems, a mouse nerve cell line was used in combination with chemical ischemia as a screen for potential neuroprotective drugs for ischemia. To induce chemical ischemia, iodoacetic acid (IAA), a well known, irreversible inhibitor of the glycolytic enzyme glyceraldehyde 3-phosphate dehydrogenase (G3PDH) (see B. S. Winkler et al., Modulation of the Pasteur effect in retinal cells: implications for understanding compensatory metabolic mechanisms, in Exp Eye Res 76 (2003) 715-723) was used in combination with the HT22 mouse hippocampal cell line. IAA has been used in a number of other studies to induce ischemia in nerve cells. The changes following IAA treatment of neural cells are very similar to changes which have been seen in animal models of CNS trauma and ischemia. These include alterations in membrane potential, breakdown of phospholipids, loss of ATP, and an increase in reactive oxygen species. A 2 hr treatment of the HT22 cells with 20 μM IAA induces over 90% cell death 20 hr later. […]

HT22 cells [2] = assay: HT22 oxidative glutamate toxicity (oxytosis) assay; format: cell-based, mouse; details: for EC50: Mus musculus, HT-22
Experimental: FIG. 1D illustrates the results of an oxidative stress assay. HT22 cells were treated with 5 mM glutamate and different concentrations of two versions of curcumin derivatives. Cell viability was measured 24 hr later by the MTT assay (J. B. Davis and P. Maher, Protein kinase C activation inhibits glutamate-induced cytotoxicity in a neuronal cell line. Brain Res. 652 (1994) 169-173). Legend for FIG. 1A, FIG. 1B and FIG. 1D: x-x, Cmpd CNB-001, o-o, Cmpd J147.
Similar toxicity assays as described above are also conducted with invention compounds using HT22 cells in an assay for oxidative stress. After exposure with 1 mM, 2 mM, 2.5 mM, or 5 mM glutamate, cell viability is determined with the MTT assay.
HT22 hippocampal neurons are treated with 5 mM glutamate and increasing concentrations of invention compounds. Cell viability is measured 24 hr later by the MTT assay (Davis and Maher, Brain Res. 652:169-173 (1994)).

primary cortical neurons = assay: Trophic factor withdrawal (TFW) assay; format: cell-based, rat; details: Rattus norvegicus, Primary cortical neuron
Experimental: FIG. 1A illustrates the results of a trophic factor withdrawal assay. Primary cortical neurons are prepared from 18-day-old rat embryos, and cultured at low cell density 1×10^6/35 mm dish, in serum containing medium, with different compounds Viability is then assayed 2 days later using a fluorescent live-dead assay (Molecular Probes).
Primary cortical neurons can be prepared from 18-day-old embryos of Sprague-Dawley rats as described (Liu & Schubert, J. Neurochem., 1997, 69:2285-2293 and J. Neurochem., 1998, 71:2322-2329). Briefly, the cerebral cortex is dissected out under an anatomical microscope and is freed of meninges and blood vessels. The cortex is cut into small pieces and is then dissociated by trypsin digestion and passed through a pipette tip. Dissociated neurons are suspended in various media and plated on polylysine-coated 35 mm tissue culture dishes (e.g., 1×10^6 cells/dish). Several different culture conditions can be used as known in the art. Invention compounds can be added to cell culture dishes. Cell survival can be measured 1-2 days after compound administration.
A serum-containing medium can be used which includes a minimal essential medium (Sigma) containing 30 mM glucose, 2 mM glutamine, 1 mM pyruvate, penicillin (100 U/ml), streptomycin (100 μg/ml), and 10% fetal calf serum. At a plating density of 1×10^6 cells/dish, most neurons die after one week of culture in this medium. If plated at a density of 2×10^6 cells/dish, then most neurons survive. The cell density-dependent neuronal survival in this system is most likely dependent on the neurotrophic factors secreted by the neurons, not by the glia. The results are the same when glial proliferation is inhibited by cytosine arabinoside.
The structure-activity relationships of compounds according to the present invention can be determined by measuring trophic factor withdrawal in […] primary cortical neurons. As shown in FIG. 1A-FIG. 1D, compounds are added to low density primary cultures of E18 rat cortical neurons at the time of plating, and cell survival is determined two days later by a variety of methods.

[3] = Cell Culture, read-out: Amyloid Toxicity, Intracellular
[4] = Cell Culture (Table 2), read-out: Oxidative Glutamate Toxicity
[5] = Cell Culture (Table 2), read-out: Trophic Factor Withdrawal

Compound | CaMKinase II (CaM Kinase II alpha) | In Vitro Ischemia, Retinal Ganglion Cells (Retinal Ganglion Cells) | EC50 (MC-65 cells; [3]) | Protection against intracellular protein aggregation and toxicity (MC-65 cells) | EC50 (Amyloid) | In Vitro Ischemia, Mouse hippocampal cells (HT22 cells [1]) | Cell death caused by treatment of HT22 cells with 20 μM IAA (HT22 cells [1]) | EC50 (HT22 cells [2]; [4]) | HT22 cells that live (HT22 cells [2]; glutamate, in the presence of Cmpd CNB-001 at 1 μM) | EC50 (primary cortical neurons; [5]) | EC50 (MC-65 cells; Intracellular amyloid toxicity, read-out: MC65 EC50) | EC50 (HT22 cells [2]; HT22 cells, following 5 mM glutamate exposure, MTT, read-out: EC50) | EC50 (HT22 cells [2]; Oxidative glutamate toxicity (oxytosis), read-out: HT-22 EC50) | EC50 (primary cortical neurons; Trophic factor withdrawal assay, read-out: TFW EC50)
COc1cc(/C=C/c2cc(/C=C/c3ccc(O)c(OC)c3)n(-c3ccccc3)n2)ccc1O [CNB-001] | + | + | 200 nM | neuroprotective | 500 nM | + | can be prevented | 500 nM | over 90% | 500 nM |  |  |  | 
COc1cccc(/C=N/N(C(=O)C(F)(F)F)c2ccc(C)cc2C)c1 [Compound J147] | + | + | 3 nM | neuroprotective | 10 nM |  | can be prevented | 5 nM |  | 10 nM | 10 nM | ~5 nM | 6 nM | 50 nM
